Results: the supplement of paper PMC13380429

Assays:
Conditions in all cases: 72 h
[1] = test system: Caco-2; assay: cell viability relative to DMSO; higher = less toxic
[2] = test system: Calu-3; assay: as above
[3] = test system: Vero E6; assay: as above
[4] = test system: Caco-2; assay: relative viability EC50 (midpoint between 100% and the lowest measured viability); higher = less toxic
[5] = test system: Calu-3; assay: as above
[6] = test system: Vero E6; assay: as above
[7] = test system: Caco-2; assay: drug sensitivity score (DSS) for viability; higher = more toxic; extreme values may be limits of the assay
[8] = test system: Calu-3; assay: as above
[9] = test system: Vero E6; assay: as above
[10] = test system: HepG2; assay: as above
[11] = test system: U2OS; assay: as above
[12] = test system: HepG2; assay: cell viability relative to DMSO; higher = less toxic
[13] = test system: U2OS; assay: as above
[14] = test system: HepG2; assay: relative viability EC50 (midpoint between 100% and the lowest measured viability); higher = less toxic
[15] = test system: U2OS; assay: as above

SMILES | cell viability ([1]; 1 nM) [%] | cell viability ([1]; 10 nM) [%] | cell viability ([1]; 100 nM) [%] | cell viability ([1]; 1000 nM) [%] | cell viability ([1]; 10000 nM) [%] | cell viability ([2]; 1 nM) [%] | cell viability ([2]; 10 nM) [%] | cell viability ([2]; 100 nM) [%] | cell viability ([2]; 1000 nM) [%] | cell viability ([2]; 10000 nM) [%] | cell viability ([3]; 1 nM) [%] | cell viability ([3]; 10 nM) [%] | cell viability ([3]; 100 nM) [%] | cell viability ([3]; 1000 nM) [%] | cell viability ([3]; 10000 nM) [%] | relative viability EC50 [4] [µM] | relative viability EC50 [5] [µM] | relative viability EC50 [6] [µM] | drug sensitivity score [7] | drug sensitivity score [8] | drug sensitivity score [9] | drug sensitivity score [10] | drug sensitivity score [11] | cell viability ([12]; 1 nM) [%] | cell viability ([12]; 10 nM) [%] | cell viability ([12]; 100 nM) [%] | cell viability ([12]; 1000 nM) [%] | cell viability ([12]; 10000 nM) [%] | cell viability ([13]; 1 nM) [%] | cell viability ([13]; 10 nM) [%] | cell viability ([13]; 100 nM) [%] | cell viability ([13]; 1000 nM) [%] | cell viability ([13]; 10000 nM) [%] | relative viability EC50 [14] [µM] | relative viability EC50 [15] [µM]
CC(=O)SC[C@@H](C)C(=O)N1CCC[C@H]1C(=O)N[C@@H](Cc1ccccc1)C(=O)O [alacepril] | 102 | 101 | 94.7 | 108 | 104 | 106 | 108 | 96.9 | 103 | 99.4 | 98.3 | 101 | 93 | 98.8 | 99.4 | > 10 | > 10 | > 10 | 0 | 0 | 0 |  |  |  |  |  |  |  |  |  |  |  |  |  | 
C#CCN(C)[C@H](C)Cc1ccccc1 [selegiline] |  |  |  |  |  |  |  |  |  |  |  |  |  |  |  |  |  |  |  | 0 | 0 | 0 | 0 |  |  |  |  |  |  |  |  |  |  |  | 
Cc1ccc(C(=O)c2ccc(CC(=O)O)n2C)cc1 [tolmetin] | 90.4 | 94.6 | 94.6 | 90.7 | 105 | 88.7 | 97.8 | 92.4 | 90.9 | 96.6 |  |  |  |  |  | > 10 | > 10 |  | 0 | 0 |  | 0 | 0 | 109 | 109 | 100 | 108 | 93.7 | 96.8 | 102 | 92.4 | 97.8 | 102 | > 10 | > 10
Cc1ccc2c(N3CCN(CCc4cccc(N5CCNC5=O)c4)CC3)cccc2n1 | 104 | 98 | 93.9 | 101 | 96 | 93.6 | 94.8 | 108 | 99.2 | 97.6 | 99.8 | 100 | 98.3 | 103 | 96.3 | > 10 | > 10 | > 10 | 0 | 0 | 0 | 1.7 | 0 | 96.1 | 98.6 | 89.2 | 92.8 | 73.5 | 101 | 101 | 101 | 95.5 | 97.7 |  | > 10
Cc1ccc(N(CC2=NCCN2)c2cccc(O)c2)cc1 [phentolamine] | 99 | 98.8 | 109 | 97.4 | 91.1 | 99.8 | 103 | 105 | 93.5 | 106 |  |  |  |  |  | > 10 | > 10 |  | 0 | 0 |  | 0 | 0 | 96.8 | 96.5 | 106 | 106 | 104 | 99.3 | 100 | 94.7 | 101 | 97.3 | > 10 | > 10
Nc1nc(=O)n([C@H]2C[C@H](O)[C@@H](CO)O2)cc1F [fdcyd] | 93.4 | 106 | 94.9 | 113 | 86.1 | 85.1 | 108 | 84.1 | 85.5 | 68.3 | 99.3 | 105 | 90.7 | 66.4 | 54.9 | > 10 |  |  | 0.1 | 3.4 | 7 | 14.8 | 0.1 | 117 | 89.8 | 60.1 | 55.2 | 49.8 | 102 | 106 | 95.8 | 104 | 86.2 | 0.0346 | > 10
CN/C(=N\CCSCc1nc[nH]c1C)NC#N [cimetidine] | 99.8 | 98.7 | 98.7 | 106 | 88.1 | 104 | 106 | 102 | 101 | 88.6 | 94.5 | 91.7 | 96.9 | 91.3 | 90 | > 10 | > 10 | > 10 | 0 | 0 | 0 |  | 0 |  |  |  |  |  | 101 | 106 | 100 | 104 | 96.4 |  | > 10
COc1ccc2c(c1)/C(=C/c1cnc[nH]1)C(=O)N2 [SU9516] | 101 | 96 | 95.3 | 105 | 96.8 | 99.9 | 109 | 112 | 122 | 134 | 97.4 | 99.4 | 95.3 | 104 | 79 | > 10 | > 10 | > 10 | 0 | 0 | 0.5 | 3.5 | 0.2 | 105 | 105 | 97.7 | 90.8 | 59.3 | 101 | 103 | 101 | 106 | 83.7 |  | > 10
CS(=O)(=O)c1cccc(CNc2nc(Nc3ccc4c(c3)CCC(=O)N4)ncc2C(F)(F)F)c1 | 94.6 | 101 | 95.3 | 96.6 | 85.5 | 108 | 99.5 | 101 | 88.2 | 88.5 | 103 | 96.9 | 99.1 | 87 | 78.8 | > 10 | > 10 | > 10 | 0.3 | 0.5 | 1.8 | 3.5 | 4.2 | 104 | 111 | 94.4 | 94.9 | 50.2 | 98.3 | 97.6 | 93.7 | 92.4 | 46 |  | 2.04
C=C[C@]1(C)C[C@@H](OC(=O)CS[C@@H]2C[C@H]3CC[C@@H](C2)N3C)[C@]2(C)[C@H](C)CC[C@]3(CCC(=O)[C@H]32)[C@@H](C)[C@@H]1O [retapamulin] | 94.7 | 98.2 | 112 | 92.8 | 98.8 | 107 | 98.5 | 104 | 98.2 | 97.8 | 94.9 | 101 | 90.4 | 93.9 | 91.5 | > 10 | > 10 | > 10 | 0 | 0 | 0 | 2.6 | 0 | 96.9 | 101 | 89.4 | 85.9 | 74 | 103 | 98.4 | 102 | 101 | 99.1 |  | > 10
CNc1nc(NCc2ccc(NS(C)(=O)=O)cc2Cl)cc(-c2ccccn2)n1 [TC-G-1008] | 93.1 | 105 | 90.4 | 95.1 | 78.5 | 105 | 113 | 98.2 | 90 | 83.7 | 105 | 106 | 98.3 | 101 | 81.5 | > 10 | > 10 | > 10 | 0.9 | 0.9 | 0.4 | 2.4 | 0.6 | 93.9 | 91.2 | 106 | 99.4 | 54.8 | 100 | 108 | 101 | 100 | 79 |  | > 10
Nc1nc(-c2nn(Cc3ccccc3F)c3ncccc23)ncc1C1CC1 [BAY-41-2272] | 86.5 | 90.5 | 94.1 | 100 | 93.8 | 100 | 108 | 91.7 | 104 | 110 | 102 | 96.1 | 97.3 | 86 | 66.7 | > 10 | > 10 |  | 0 | 0 | 2.9 | 1.1 | 0 | 95.8 | 103 | 95.8 | 104 | 69.2 | 90 | 96.6 | 93.9 | 101 | 105 |  | > 10
CCCC(C)C1(CC)C(=O)NC(=O)NC1=O (centres undefined) [pentobarbital] | 94.8 | 90.8 | 88.3 | 89.1 | 93.9 | 106 | 90.3 | 109 | 107 | 94.1 | 102 | 94.4 | 96.5 | 106 | 100 | > 10 | > 10 | > 10 | 0.8 | 0 | 0 |  | 0 |  |  |  |  |  | 104 | 97.1 | 99.7 | 93.9 | 99.1 |  | > 10
CN(C)/N=N/c1[nH]cnc1C(N)=O [dacarbazine] | 100 | 97.8 | 97 | 103 | 93.4 | 91.9 | 102 | 95.9 | 110 | 95.7 | 98.6 | 94.2 | 94.4 | 97.2 | 100 | > 10 | > 10 | > 10 | 0 | 0 | 0 | 2.3 | 0 | 106 | 90.7 | 99.2 | 90.5 | 72.7 | 97.7 | 99.2 | 94.9 | 102 | 92.7 |  | > 10
C[C@]12CCC(=O)C=C1CC[C@@H]1[C@@H]2CC[C@@]2(C)[C@H]1CC[C@]2(O)C(=O)CO [cortodoxone] | 89.6 | 95.5 | 100 | 86.5 | 103 | 106 | 91 | 95.2 | 97.8 | 104 | 108 | 108 | 105 | 97.6 | 96.8 | > 10 | > 10 | > 10 | 0 | 0 | 0 |  | 0 |  |  |  |  |  | 92.9 | 95.2 | 96.6 | 99.6 | 98.7 |  | > 10
Oc1ccc([C@@H]2Oc3ccc(O)cc3[C@@H]3CCC[C@@H]32)cc1 [erteberel] | 95.4 | 94.4 | 96.7 | 92.8 | 86.8 | 108 | 109 | 108 | 98.3 | 102 | 94.8 | 99 | 92.5 | 99.4 | 87.8 | > 10 | > 10 | > 10 | 0 | 0 | 0 | 2 | 0.5 | 102 | 101 | 97.6 | 108 | 52.4 | 97.5 | 95.6 | 102 | 98.9 | 82.9 |  | > 10
